One series deals with Dv-ACE-1 (Dictyocaulus viviparus, UniProt Q0H0R6). In words: Ellman assay, transfected COS-7 extract, logistic fit. The class given is biochemical. A general note: DTNB colorimetry detects thiols as they appear.
Another series deals with CC(=O)SCC[N+](C)(C)C. Description: Ellman assay, transfected COS-7 extract, fit with Km, Kss and b. It counts as biochemical, Dictyocaulus viviparus. Conditions: pH 7, 0.3 mM DTNB, 167 mM NaCl, substrate-inhibition model.
Another series concerns CCC(=O)SCC[N+](C)(C)C. Described as above. The class given is biochemical, Dictyocaulus viviparus. To be noted: pH 7, 0.3 mM DTNB, 167 mM NaCl, substrate-inhibition model.
The subject of another series is CCCC(=O)SCC[N+](C)(C)C. Described as above. It counts as biochemical, Dictyocaulus viviparus. To be noted: pH 7, 0.3 mM DTNB, 167 mM NaCl, substrate-activation model.

Consider `CC(C)NP(=O)(NC(C)C)OP(=O)(NC(C)C)NC(C)C` [iso-OMPA], for which the IC50 – broadly, the concentration that inhibits the measured activity by half – at Dv-ACE-1 is above 3000 µM.

Consider `C=CC[N+](C)(C)c1ccc(CCC(=O)CCc2ccc([N+](C)(C)CC=C)cc2)cc1` [BW284c51], for which the midpoint of inhibition against Dv-ACE-1, the IC50, lay at 0.303 µM.

On to Dv-ACE-1 (Dictyocaulus viviparus), for which the results for the Km in the series with CC(=O)SCC[N+](C)(C)C, in the series on CCC(=O)SCC[N+](C)(C)C and in the series on CCCC(=O)SCC[N+](C)(C)C were 7.51 ± 0.21 × 10^−4 M, 1.59 ± 0.03 × 10^−3 M and 4.32 ± 1.61 × 10^−5 M, respectively.

In turn, `CCN(CC)C(C)CN1c2ccccc2Sc2ccccc21` (stereo not shown) [ethopropazine] showed an IC50 on Dv-ACE-1 of 137 µM.

`CNC(=O)Oc1ccc2c(c1)[C@]1(C)CCN(C)[C@@H]1N2C` [physostigmine] showed an IC50 at Dv-ACE-1 of 0.126 µM.

Source of the values: paper PMC3222274 (Molecular and biochemical parasitology, 2011).
